Key:
[1] = system: MEFs cells expressing RIPK1 S161E mutant; assay: TSZ-induced programmed necrosis in MEFs cells expressing RIPK1 S161E mutant; assay type: cell-based, mouse; details: 600 nM
From the text: (§1) The adopted biological test protocol was: the effect of compounds on programmed necrosis in MEFs cells (mouse embryonic fibroblasts) with RIPK1 S161E mutation.
(§2) In order to verify the inhibitory effect of the compound of the present invention on the highly activated RIPK1 kinase at the cellular level, MEFs cells stably expressing RIPK1 S161E (simulating the activation state of RIPK1 after phosphorylation) were selected, TNFα-SM164-zVAD (Caspase inhibitor for inhibiting apoptosis) (TSZ) was used in combination to induce programmed cell necrosis, and cell viability was calculated by detecting chemiluminescence values, thereby obtaining the biological activity of the compound in inhibiting programmed necrosis.
(§3) Methods: MEFs cells replenished by RIPK1: WT-RIPK1, S161A-RIPK1 and S161E-RIPK1 were replenished in RIPK1 stable knockout cells respectively. After stable expression and being cultured to logarithmic growth phase, the cells were collected, and centrifuged at 1000 rpm for 5 min. The supernatant was discarded. Cell concentration was adjusted to 5×10^4/mL, and cells were inoculated into 384-well plates with 40 μL per well. Cell culture medium diluted SM164 (100 nM), zVAD (50 μM) and compound, each […], were added to the corresponding wells. After pretreatment at 37° C. for 1 h, 5 μL of cell culture medium diluted TNF (50 ng/mL) was added to each well in the stimulated group and 5 μL of culture medium was added to the control group. […] The unstimulated DMSO control wells (Ctrl) were taken as 100% cell viability. EC50 values of the compounds were calculated using Prism Graphpad statistical software.

[2] = Liver microsomal stability test, human; assay type: in vitro ADME
From the text: The adopted biological test protocol was: testing the half-life of the compound in human- or mouse-derived liver microsomes.
Liver microsomes contain many enzymes involved in drug metabolism, especially cytochrome P-450, and therefore it is one of the major tissues involved in drug metabolism in living organisms. There are some correlations between the stability of the compound in liver microsomes and the pharmacogenetic stability thereof in vivo. Therefore, the relative stability of compounds in vivo can be roughly predicted by testing the half-life of different compounds in human- or mouse-derived liver microsomes. The specific methods were as follows:
Methods: 0.75 μL of 0.5 mM samples (compounds to be tested and control verapamil), 9.38 μL of 20 mg/mL liver microsomes (Human and Mouse) were taken and added to 239.88 μL PBS (on ice), and divided into 30 μL/tube samples respectively. The samples were incubated at 37° C. in a constant temperature water bath for 5 min, and then all samples were taken out. At zero-time, control group was added with 90 μL of ice acetonitrile first, and then added with 15 μL of 3 mM NADPH solution sequentially, and incubated at 37° C. in a constant temperature water bath. The corresponding samples were taken out after 5 min, 10 min, 20 min, 30 min and 60 min, respectively, and quenched by adding 90 μL of ice acetonitrile. All samples were centrifuged at 10000 rpm for 10 min, and the supernatants were taken and placed in a liquid phase vial waiting for LC-MS analysis.

RIPK1(1-330) protein = target: T1, RIPK1(1-330) protein (Homo sapiens, UniProt Q13546); assay: RIPK1(1-330) kinase activity (ADP-Glo); assay type: biochemical; details: read-out: effective semi-inhibitory concentration on RIPK1 kinase
T1 construct: testing the effect of compound QY-10-40 on the kinase activity of RIPK1(1-330) protein; made in house
T1 sequence (Q13546 1-330): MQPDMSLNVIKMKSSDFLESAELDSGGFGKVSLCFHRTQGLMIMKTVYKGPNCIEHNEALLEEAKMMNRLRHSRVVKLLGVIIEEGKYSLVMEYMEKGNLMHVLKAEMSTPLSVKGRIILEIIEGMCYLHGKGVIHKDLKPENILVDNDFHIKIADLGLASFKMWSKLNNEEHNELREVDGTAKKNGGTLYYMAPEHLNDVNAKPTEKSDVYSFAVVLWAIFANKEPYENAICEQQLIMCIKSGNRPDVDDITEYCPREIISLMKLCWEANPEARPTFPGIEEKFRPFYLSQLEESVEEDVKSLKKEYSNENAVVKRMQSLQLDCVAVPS
Method: Methods: RIPK1 (1-330) protein with a final concentration of 2 μM and ATP (IX kinase buffer) with a corresponding concentration, final concentration of 5 μL, were added to the 384-well plate, respectively. Each group at least set up triplicate wells and reacted for 2 h at 37° C. 5 μL ADP-Glo reagent was added, which was used to stop kinase reaction and remove residual ATP in reaction system. The plates was placed at room temperature for 40 min. 10 μL kinase detection reagent was added, which was used to convert ADP into ATP and introduce luciferase and luciferin for ATP detection into the system. The reaction was carried out at room temperature for 1 h. 7500 Fast Real-Time PCR System was used to detect luminescence. The IC50 of the compounds inhibiting the kinase reaction was calculated using Prism Graphpad statistical software.

[3] = system: phosphorylation of RIPK1 and phosphorylation of downstream protein MLKL; assay: Programmed necrosis pathway signals by western blot in L929 cells; assay type: cell-based, mouse
Method: (§4) In order to verify whether the compounds of the present invention can inhibit programmed cell necrosis by inhibiting the activity of RIPK1, and to detect the changes in the signal of the programmed necrosis pathway. FADD-deficient Jurkat or L929 cells treated with the compound of the present invention were used, and TNFα was added to induce programmed necrosis. Then the cells were collected and phosphorylation of RIPK1 and oligomerization of MLKL were detected using western blot.
(§5) Methods: FADD-deficient Jurkat cells or L929 cells were cultured in vitro. After growing to the logarithmic growth phase, the cells were collected, centrifuged at 1000 rpm for 5 min, the supernatant was discarded, and the cell concentration was adjusted to 1×10^6/mL. In the 12-well cell culture plate, each well was added with 1 ml of cells, and 0.2 μL of DMSO solution with a concentration of 50 mM drug or pure DMSO control, and pretreated for 1 h. 0.5 μL of TNF α (PBS solution) with a concentration of 100 μg/ml was added to each stimulated group. […] The BCA protein quantification kit was used to detect the protein content of each group, and PIPA lysis buffer was used to adjust the protein amount to make the final volume being 100 μL. […] The resulting sample was incubated with ECL luminescent solution and the luminescent signal was detected.

[4] = system: phosphorylation of RIPK1 and phosphorylation of downstream protein MLKL; assay: Programmed necrosis pathway signals by western blot in FADD-deficient Jurkat cells; assay type: cell-based, human; details: 1.6 nM
Method: as §4, §5

[5] = system: MEFs cells expressing RIPK1 WT; assay: TSZ-induced programmed necrosis in MEFs cells expressing RIPK1 WT; assay type: cell-based, mouse; details: 600 nM
From the text: as §1, §2, §3

**Q.** With `Cn1ncc(C(=O)NCc2ccc(-n3cnc4c(N)ncnc43)cc2)c1Cc1ccccc1` [QY-10-40] as the molecule, how does the “inhibition of programmed necrosis” value [1] read?
**A.** Its value is “can significantly inhibit occurrence of programmed necrosis”.

**Q.** What about the “stability in liver microsomes (in words)” value ([2]; human derived liver microsomes) of the same molecule?
**A.** Its value is “good stability”.

**Q.** And the “T1/2 (min) Human” value ([2]; human liver microsomes, NADPH, 37° C.)?
**A.** Its value is 40.8 min.

**Q.** And the IC50 (RIPK1(1-330) protein)?
**A.** Its IC50 is 219 nM.

**Q.** And the “inhibitory effect on pathway signals compared with GSK2982772 and Nec-1s” value [3]?
**A.** The value was “far superior to the other two”.

**Q.** And the “inhibition of phosphorylation of RIPK1 and of downstream protein MLKL” value [4]?
**A.** Its value is “effectively inhibit”.

**Q.** And the “inhibition of programmed necrosis” value [5]?
**A.** Its value is “can effectively inhibit the occurrence of programmed necrosis”.
